Here are results for eleven molecules from ChEMBL document CHEMBL3352076, “Synthesis of novel triazole-linked mefloquine derivatives: biological evaluation against Plasmodium falciparum” (Bioorg Med Chem Lett, 2014).

One may read the IC50 as the midpoint of a concentration-inhibition curve. A lower IC50 goes with higher potency.

The experiment relates to Plasmodium falciparum. Kind of experiment: Antimalarial activity against chloroquine-sensitive Plasmodium falciparum NF54. Type of experiment: functional, organism-based.

Molecule `FC(F)(F)c1cc(-n2cc(CN3CCN(Cc4ccccc4)CC3)nn2)c2cccc(C(F)(F)F)c2n1` showed a concentration for half-maximal inhibition (IC50) of 25.6 µM. For `FC(F)(F)c1cc(-n2cc(CN3CCN(C4CCCCC4)CC3)nn2)c2cccc(C(F)(F)F)c2n1` the value was 31.8 µM; for `FC(F)(F)c1cc(-n2cc(CN3CCN(C4C5CC6CC(C5)CC4C6)CC3)nn2)c2cccc(C(F)(F)F)c2n1` (stereo unspecified), 14.1 µM; for `CC(C)N(Cc1cn(-c2cc(C(F)(F)F)nc3c(C(F)(F)F)cccc23)nn1)C(C)C`, 4.8 µM. For the molecule `FC(F)(F)c1cc(-n2cc(CN(Cc3ccccc3)Cc3ccccc3)nn2)c2cccc(C(F)(F)F)c2n1`, the midpoint of inhibition, the IC50, lay at 9.1 µM.

`FC(F)(F)c1cc(-n2cc(CN3CCN(Cc4ccncc4)CC3)nn2)c2cccc(C(F)(F)F)c2n1` registered an IC50 of 10.6 µM. The molecule `FC(F)(F)c1cc(-n2cc(CN3CCN(Cc4c[nH]c5ccccc45)CC3)nn2)c2cccc(C(F)(F)F)c2n1` returned a concentration for half-maximal inhibition (IC50) of 1.3 µM. This IC50 is about 8.2-fold lower than that of the molecule before. For `FC(F)(F)c1cc(-n2cc(CN(C3CCCCC3)C3CCCCC3)nn2)c2cccc(C(F)(F)F)c2n1` the value was 3.26 µM; for `CC(C)(C)NCc1cn(-c2cc(C(F)(F)F)nc3c(C(F)(F)F)cccc23)nn1`, 2.8 µM. In the case of `FC(F)(F)c1cc(-n2cc(CNC3C4CC5CC(C4)CC3C5)nn2)c2cccc(C(F)(F)F)c2n1` (stereo unspecified), the midpoint of inhibition, the IC50, lay at 1 µM. Next, `O[C@@H](c1cc(C(F)(F)F)nc2c(C(F)(F)F)cccc12)[C@H]1CCCCN1` [(S,R)-MEFLOQUINE]: 20 µM.
